What all share (format): cell-based, human
For experiment [1], the system named is LARP6 and nonmuscle myosin. The experiment can be described thus: Coimmunoprecipitation of nonmuscle myosin IIB with HA-tagged LARP6. The conditions noted are these: lung fibroblasts; puromycin 200 μg/ml 2 h vs cycloheximide. The procedure:
(§1) ML-7, blebbistatin, cytochalasin B, puromycin, and cycloheximide were purchased from Sigma. ML-7 was used at 40 μM, blebbistatin was used at 100 μM, and cytochalasin B was used at 20 μM. Cells were incubated with the drugs for 16 h before analysis. Puromycin (200 μg/ml) and cycloheximide (100 μg/ml) were added to the cells for 2 h. Human lung fibroblasts have been described previously.16 Scleroderma fibroblasts were purchased from the European Collection of Cell Cultures (cell line BM0070) and derived from the skin of a scleroderma patient. MEFs were derived from knock-in mice in which the 5′SL of the collagen α1(I) gene has been mutated (Parsons et al., submitted). Several independent cell isolates were used throughout the study. All cells were cultured in Dulbecco's modified Eagle's medium supplemented with 10% fetal bovine serum for up to 10 passages. Plasmid constructs and adenovirus preparation. […] [^32P]dCTP was included in the PCR step to label the products, which were resolved on sequencing gels, as described previously.^8,31,49,50 When RNA from polysomal fractions was analyzed, an equal aliquot of each fraction was used. […]
One of the roles of nonmuscle myosin filaments may be to present collagen mRNAs to ribosomes. Therefore, we assessed if the association of collagen mRNAs with nonmuscle myosin is dependent on intact polysomes. […]

The subject of another experiment is nonmuscle myosin IIB. The experiment can be described thus: Immunoprecipitation of nonmuscle myosin IIB and RT-PCR of collagen mRNAs. As to conditions: lung fibroblasts; cycloheximide 100 μg/ml or puromycin 200 μg/ml, 2 h. As for the experimental part:
as §1, with “submitted).” for “submitted). Several independent cell isolates were used throughout the study. All cells were cultured in Dulbecco's modified Eagle's medium supplemented with 10% fetal bovine serum for up to 10 passages. Plasmid constructs and adenovirus preparation.”
(§2) One of the roles of nonmuscle myosin filaments may be to present collagen mRNAs to ribosomes. Therefore, we assessed if the association of collagen mRNAs with nonmuscle myosin is dependent on intact polysomes. […] We then immunoprecipitated nonmuscle myosin from lung fibroblasts treated with cycloheximide or puromycin and analyzed if this can change the pull-down of collagen mRNAs. As control, the association with vimentin was analyzed in the same samples (FIG. 9b). […]

A further experiment concerns polysomes. The experiment in a line: Fractionation of polysomes on sucrose gradients. The conditions noted are these: 15-45% sucrose gradient, Western blot; puromycin or ML-7 treatment. The procedure: ML-7, blebbistatin, cytochalasin B, puromycin, and cycloheximide were purchased from Sigma. ML-7 was used at 40 μM, blebbistatin was used at 100 μM, and cytochalasin B was used at 20 μM. Cells were incubated with the drugs for 16 h before analysis. Puromycin (200 μg/ml) and cycloheximide (100 μg/ml) were added to the cells for 2 h. Human lung fibroblasts have been described previously.16 Scleroderma fibroblasts were purchased from the European Collection of Cell Cultures (cell line BM0070) and derived from the skin of a scleroderma patient. MEFs were derived from knock-in mice in which the 5′SL of the collagen α1(I) gene has been mutated (Parsons et al., submitted). Several independent cell isolates were used throughout the study. All cells were cultured in Dulbecco's modified Eagle's medium supplemented with 10% fetal bovine serum for up to 10 passages. Plasmid constructs and adenovirus preparation. The HA-tagged LARP6 clone and the deletion mutants have been described previously.^16 Adenoviruses were constructed by recloning of the constructs into the pAdCMVTRACK vector, followed by recombination with the pAdEasy vector and amplification, as described previously.^48 Expression of each construct was verified by Western blot analysis. The viruses made express both the full-size test protein and the green fluorescent protein (GFP), which is encoded by an independent transcription unit.^48 Expression of GFP served as control for viral transduction. RT-PCR analysis Total cellular RNA was isolated using an RNA isolation kit (Sigma). RT-PCRs were performed with 100 ng of total RNA or using rTth reverse transcriptase (Boca Scientific, Boca Raton, Fla.). [^32P]dCTP was included in the PCR step to label the products, which were resolved on sequencing gels, as described previously.^8,31,49,50 When RNA from polysomal fractions was analyzed, an equal aliquot of each fraction was used. The number of cycles was adjusted to within the linear range of the reaction. The primers used for RT-PCR were as follows: h-collagen α1(I), 5′ primer […] (SEQ ID NO:3) and 3′ primer […] (SEQ ID NO:4); h-collagen α2(I), 5′ primer […] (SEQ ID NO:5) and 3′ primer […] (SEQ ID NO:6).
Polysomes were fractionated as described previously.^16 Sucrose fractions (0.5 ml) were collected, and total RNA was extracted by phenol/chloroform and isopropanol precipitation. Equivalent amounts of each fraction were analyzed by RT-PCR. Total proteins were extracted from sucrose fractions by trichloroacetic acid precipitation, and equivalent amounts were analyzed by Western blot analysis.
One of the roles of nonmuscle myosin filaments may be to present collagen mRNAs to ribosomes. Therefore, we assessed if the association of collagen mRNAs with nonmuscle myosin is dependent on intact polysomes. […] Only the anti-myosin antibody immunoprecipitated collagen α1(I) and α2(I) mRNAs (lane 1). We then immunoprecipitated nonmuscle myosin from lung fibroblasts treated with cycloheximide or puromycin and analyzed if this can change the pull-down of collagen mRNAs. As control, the association with vimentin was analyzed in the same samples (FIG. 9b). […] The association of collagen mRNAs with vimentin increased after the dissociation of polysomes (lanes 3 and 4). […] To assess if nonmuscle myosin copurifies with polysomes, we fractionated polysomes on sucrose gradients^16 and analyzed for the presence of nonmuscle myosin in the fractions using Western blot analysis (FIG. 9f). […]
In general terms: A western blot detects proteins with antibodies after separation by electrophoresis.

The next experiment deals with myosin IIB. The experiment can be described thus: Western blot analysis of total nonmuscle myosin IIB level. As to conditions: lung fibroblasts; puromycin 200 μg/ml 2 h vs cycloheximide-treated cells. The procedure:
as §1, with “passages.” for “passages. Plasmid constructs and adenovirus preparation.”
Protein concentration was estimated by the Bradford assay, with bovine serum albumin as standard.^51 Western blot analyses of cellular proteins were performed using 50 μg of protein. […] The medium was collected, and an aliquot was analyzed directly by Western blot analysis. […]

In the next experiment the test system is vimentin. The experiment can be described thus: Immunoprecipitation of vimentin and RT-PCR of collagen mRNAs. The conditions noted are these: lung fibroblasts; puromycin (dissociation of polysomes) vs cycloheximide. As for the experimental part: as §1, with “submitted).” for “submitted). Several independent cell isolates were used throughout the study. All cells were cultured in Dulbecco's modified Eagle's medium supplemented with 10% fetal bovine serum for up to 10 passages. Plasmid constructs and adenovirus preparation.”
as §2

Another experiment has as its system LARP6 and vimentin. The experiment can be described thus: Coimmunoprecipitation of vimentin with HA-tagged LARP6. The conditions noted are these: lung fibroblasts; puromycin 200 μg/ml 2 h vs cycloheximide. The procedure:
as §1, with “submitted).” for “submitted). Several independent cell isolates were used throughout the study. All cells were cultured in Dulbecco's modified Eagle's medium supplemented with 10% fetal bovine serum for up to 10 passages. Plasmid constructs and adenovirus preparation.”
as §2

Regarding `COc1ccc(C[C@H](N)C(=O)N[C@H]2[C@@H](O)[C@H](n3cnc4c(N(C)C)ncnc43)O[C@@H]2CO)cc1` [puromycin], the “interaction of LARP6 and nonmuscle myosin” value in experiment [1] is “decreased”. The “collagen α1(I) and α2(I) mRNAs pulled down with nonmuscle myosin IIB” value in the experiment with nonmuscle myosin IIB was “the great majority of these mRNAs were absent”. Further, in the experiment with polysomes, the “nonmuscle myosin in polysomal fractions” value is “some nonmuscle myosin was lost, mostly from fractions 1-10”. Also, the “total level of nonmuscle myosin” value in the experiment on myosin IIB is “did not change”. Also, in the experiment on vimentin, the “association of collagen mRNAs with vimentin” value is listed as “increased”. The “interaction of LARP6 with vimentin” value in the experiment on LARP6 and vimentin is recorded as “increased”.
